Our source for the IC50 and melting point values is patent US6972299B2, “Phenylethynyl and styryl derivatives of imidazole and fused ring heterocycles” (Hoffmann-La Roche Inc., priority 2000, dated 2005).

In data set [1] the target is T1, rat mGlu 5a receptor (Rattus norvegicus, UniProt P31424).
T1 construct: expressed in transfected cells; host or cells: EBNA cells (transient transfection)
Briefly: [Ca2+]i measurement (FLIPR) on mGlu 5a transfected EBNA cells, antagonist mode. The class given is cell-based. To be noted: rat mGlu 5a transiently transfected EBNA cells, Fluo 3-AM, tested against 10 μM glutamate as agonist. The method, then:
The pharmacological activity of all of the example compounds was tested using the following method: • cDNA encoding rat mGlu 5a receptor was transiently transfected into EBNA cells using a procedure described by E.-J. Schlaeger and K. Christensen (Transient gene expression in mammalian cells grown in serum-free suspension culture; Cytotechnology, 30: 71-83,1999). [Ca^2+]i measurements were performed on mGlu 5a transfected EBNA cells after incubation of the cells with Fluo 3-AM (obtainable by FLUKA, 0.5 μM final concentration) for 1 hour at 37° C. followed by 4 washes with assay buffer (DMEM supplemented with Hank's salt and 20 mM HEPES. [Ca^2+]i measurements were done using a fluorometric imaging plate reader (FLIPR, Molecular Devices Corporation, La Jolla, Calif., USA). When compounds were evaluated as antagonists they were tested against 10 μM glutamate as agonist.
The inhibition (antagonists) curves were fitted with a four parameter logistic equation giving IC50, and Hill coefficient using the iterative non linear curve fitting software Origin (Microcal Software Inc., Northampton, Mass., USA).

Some results are limits rather than exact numbers.

T1 sequence (P31424 21-1171 isoform P31424-2 limits assumed): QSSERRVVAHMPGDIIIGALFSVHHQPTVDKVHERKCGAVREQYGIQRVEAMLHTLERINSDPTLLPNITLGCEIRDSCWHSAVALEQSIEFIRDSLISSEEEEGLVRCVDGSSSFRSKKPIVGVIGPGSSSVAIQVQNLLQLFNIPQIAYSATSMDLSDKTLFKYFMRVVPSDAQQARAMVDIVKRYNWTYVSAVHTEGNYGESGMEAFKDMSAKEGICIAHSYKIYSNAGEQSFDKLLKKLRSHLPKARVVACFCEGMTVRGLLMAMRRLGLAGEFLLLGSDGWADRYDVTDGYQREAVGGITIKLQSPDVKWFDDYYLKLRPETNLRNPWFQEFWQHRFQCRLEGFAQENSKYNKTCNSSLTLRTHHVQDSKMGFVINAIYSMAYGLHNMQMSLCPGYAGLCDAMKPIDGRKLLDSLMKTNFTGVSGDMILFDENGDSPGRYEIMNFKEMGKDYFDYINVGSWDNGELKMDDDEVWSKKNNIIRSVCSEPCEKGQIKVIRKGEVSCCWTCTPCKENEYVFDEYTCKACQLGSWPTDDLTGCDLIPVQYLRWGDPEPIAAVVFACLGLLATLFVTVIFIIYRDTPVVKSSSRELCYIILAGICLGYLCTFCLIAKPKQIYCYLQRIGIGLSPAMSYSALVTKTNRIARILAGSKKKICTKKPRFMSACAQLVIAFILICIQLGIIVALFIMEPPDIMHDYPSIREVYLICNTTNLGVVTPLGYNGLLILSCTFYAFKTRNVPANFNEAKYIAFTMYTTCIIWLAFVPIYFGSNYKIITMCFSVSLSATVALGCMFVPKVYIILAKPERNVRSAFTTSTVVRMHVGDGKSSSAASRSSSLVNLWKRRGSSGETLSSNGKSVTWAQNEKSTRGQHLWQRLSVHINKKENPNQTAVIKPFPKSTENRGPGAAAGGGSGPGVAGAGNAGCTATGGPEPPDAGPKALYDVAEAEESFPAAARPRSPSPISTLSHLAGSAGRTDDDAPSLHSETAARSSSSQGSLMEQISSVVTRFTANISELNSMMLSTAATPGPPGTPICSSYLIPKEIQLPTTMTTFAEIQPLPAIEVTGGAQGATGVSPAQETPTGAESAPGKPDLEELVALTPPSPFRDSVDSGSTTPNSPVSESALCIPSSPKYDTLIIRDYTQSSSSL

The compound `CCOC(=O)c1c(C)nc(C#Cc2cccc(NC(C)=O)c2)n1C` [Example 10, 2-(3-Acetylamino-phenylethynyl)-3,5-dimethyl-3H-imidazole-4-carboxylic acid ethyl ester] yielded an IC50 in data set [1] of 2120 nM. This counts as single-digit micromolar.

In the case of `CC(C)c1nc(C=Cc2ccc(F)cc2)n(C)c1C(C)C` [Example 33, 2-[2-(4-Fluoro-phenyl)-vinyl]-4,5-diisopropyl-1-methyl-1H-imidazole], in data set [1], the IC50 lay in the range of 5000 to 10000 nM.

Regarding `Cn1cnc(C#Cc2ccccc2)c1` [Example 29, 1-Methyl-4-phenylethynyl-1H-imidazole], the IC50 in data set [1] came to 500 nM.

Regarding `CCOC(=O)c1c(C)nc(C#Cc2ccccc2)n1C` [Example 1, 3,5-Dimethyl-2-phenylethynyl-3H-imidazole-4-carboxylic acid ethyl ester], the IC50 in data set [1] is 250 nM.

In data set [1], `CC(C)c1nc(C=Cc2ccc(Cl)cc2)n(C)c1C(C)C` [Example 34, 2-[2-(4-Chloro-phenyl)-vinyl]-4,5-diisopropyl-1-methyl-1H-imidazole] had an IC50 of 5000 to 10000 nM.

In data set [1], `CCOC(=O)c1c(C)nc(C#Cc2cccc(C)c2)n1C` [Example 9, 3,5-dimethyl-2-m-tolylethynyl-3H-imidazole-4-carboxylic acid ethyl ester] came in with a concentration for half-maximal inhibition (IC50) of 130 nM.

Turning to `Cc1nc(C#Cc2ccccc2)c([N+](=O)[O-])n1CC(O)CCl` (stereo not drawn) [Example 26, 1-Chloro-3-(2-methyl-5-nitro-4-phenylethynyl-imidazol-1-yl)-propan-2-ol], the IC50 in data set [1] was found to be 230 nM.

As to `CCOC(=O)c1c(C)nc(C#Cc2ccccc2F)n1C` [Example 17, 2-(2-Fluoro-phenylethynyl)-3,5-dimethyl-3H-imidazole-4-carboxylic acid ethyl ester], the IC50 in data set [1] is 90 nM. Compared with the last compound, the IC50 is about 2.6-fold lower.

The compound `Cc1noc(-c2c(C)nc(C#Cc3ccccc3)n2C)n1` [Example 12, 5-(3,5-Dimethyl-2-phenylethynyl-3H-imidazol-4-yl)-3-methyl-[1,2,4]oxadiazole] displayed a melting point of 137 °C. For the same compound, the IC50 in data set [1] turned out to be 11 nM.

`Cn1cncc1C#Cc1ccccc1` [Example 22, 1-Methyl-5-phenylethynyl-1H-imidazole]: the IC50 in data set [1] was 220 nM.

`CCOC(=O)Cn1c(C#Cc2ccccc2)nc(Cl)c1Cl` [Example 21, (4,5-Dichloro-2-phenylethynyl-imidazol-1-yl)-acetic acid ethyl ester]: the IC50 in data set [1] amounted to 520 nM.

Compound `COc1cc(C)c(C=Cc2nc(C(C)C)c(C(C)C)n2C)c(C)c1C` [Example 36, 4,5-Diisopropyl-2-[2-(4-methoxy-2,3,6-trimethyl-phenyl)-vinyl]-1-methyl-1H-imidazole] yielded an IC50 in data set [1] of 5000 to 10000 nM.

`CCOC(=O)c1c(C)nc(C#Cc2cccc(OC)c2)n1C` [Example 3, 2-(3-Methoxy-phenylethynyl)-3,5-dimethyl-3H-imidazole-4-carboxylic acid ethyl ester]: the IC50 in data set [1] was 350 nM.

In data set [1], `Cc1ccc(C=Cc2nc(C(C)C)c(C(C)C)n2C)cc1` [Example 42, 4,5-Diisopropyl-1-methyl-2-(2-p-tolyl-vinyl)-1H-imidazole] yielded an IC50 of 3250 nM. This IC50 is about 9.3-fold higher than that of the compound before.

`Cn1cncc1C=Cc1ccccc1` [Example 44, 1-Methyl-5-styryl-1H-imidazole] came in with an IC50 in data set [1] of 8000 nM.

`CCOC(=O)c1c(C)nc(C#Cc2ccc(N)cc2)n1C` [Example 19, 2-(4-Amino-phenylethynyl)-3,5-dimethyl-3H-imidazole-4-carboxylic acid ethyl ester] came in with an IC50 in data set [1] of 1530 nM.

Compound `Cc1cc(C#Cc2ccccc2)n(C)n1` [Example 31, 1,3-Dimethyl-5-phenylethynyl-1H-pyrazole] came in with an IC50 in data set [1] of 5000 to 10000 nM.

Regarding `Cn1cnc(Br)c1C=Cc1ccccc1` [Example 43, 4-Bromo-1-methyl-5-styryl-1H-imidazole], the IC50 in data set [1] stood at 3060 nM.

In data set [1], `CCOC(=O)c1c(C)nc(C#Cc2cccc(-n3c(C)ccc3C)c2)n1C` [Example 11] returned an IC50 of 180 nM.

On to `Cn1ccnc1C#Cc1ccccc1Cl` [Example 20, 2-(2-Chloro-phenylethynyl)-1-methyl-1H-imidazole], for which the IC50 in data set [1] came to 1100 nM. This IC50 lies about 6.1-fold higher than the previous one.

In turn, `COc1ccc(C=Cc2nc(C(C)C)c(C(C)C)n2C)cc1` [Example 37, 4,5-diisopropyl-2-[2-(4-methoxy-phenyl)-vinyl]-1-methyl-1H-imidazole] came in with an IC50 in data set [1] of 5000 to 10000 nM.

`CCOC(=O)c1c(C)nc(C#Cc2ccc(F)cc2)n1C` [Example 15, 2-(4-Fluoro-phenylethynyl)-3,5-dimethyl-3H-imidazole-4-carboxylic acid ethyl ester] registered an IC50 in data set [1] of 250 nM. That is a sub-micromolar value.

In data set [1], `CCOC(=O)c1nc(C#Cc2ccccc2)n(-c2ccccc2)c1C` [Example 8, 5-Methyl-1-phenyl-2-phenylethynyl-1H-imidazole-4-carboxylic acid ethyl ester] had an IC50 below 10000 nM.

With `CC(C)c1nc(C=Cc2ccccc2)n(C)c1C(C)C` [Example 32, 4,5-Diisopropyl-1-methyl-2-styryl-1H-imidazole], the IC50 in data set [1] is 1820 nM.

Compound `CCOC(=O)c1c(C)nc(C#Cc2ccc(Cl)cc2)n1C` [Example 14, 2-(4-Chloro-phenylethynyl)-3,5-dimethyl-3H-imidazole-4-carboxylic acid ethyl ester] showed an IC50 in data set [1] below 10000 nM.

Regarding `Cn1cnc(C#Cc2ccccc2)c1C=O` [Example 27, 3-Methyl-5-phenylethynyl-3H-imidazole-4-carbaldehyde], in data set [1], the concentration for half-maximal inhibition (IC50) came out at 1790 nM.

Turning to `Cc1nc(C#Cc2ccccc2)n(C)c1-c1nc(C2CC2)no1` [Example 13, 3-Cyclopropyl-5-(3,5-dimethyl-2-phenylethynyl-3H-imidazol-4-yl)-[1,2,4]oxadiazole], the melting point was 120 °C.

In data set [1], `Cc1nc(C#Cc2ccccc2)c([N+](=O)[O-])n1C` [Example 30, 1,2-Dimethyl-5-nitro-4-phenylethynyl-1H-imidazole] gave an IC50 of 20 nM.

`CCCCOc1ccc(C=Cc2nc(C(C)C)c(C(C)C)n2C)cc1` [Example 35, 2-[2-(4-Butoxy-phenyl)-vinyl]-4,5-diisopropyl-1-methyl-1H-imidazole] came in with an IC50 in data set [1] of 5000 to 10000 nM.

`Cn1ccnc1C#Cc1ccccc1` [Example 4, 1-Methyl-2-phenylethynyl-1H-imidazole] came in with an IC50 in data set [1] of 720 nM.

In data set [1], `CCOC(=O)c1[nH]c(C#Cc2ccccc2)nc1C` [Example 2, 5-Methyl-2-phenylethynyl-3H-imidazole-4-carboxylic acid ethyl ester] showed a half-inhibitory concentration (IC50) of 2400 nM.

As to `C(#Cc1ncc[nH]1)c1ccccc1` [Example 6, 2-Phenylethynyl-1H-imidazole], the IC50 in data set [1] was 200 nM. This IC50 is about 12-fold lower than that of the compound before.

Compound `C(#Cc1ncn2c1CSc1ncccc1-2)c1ccccc1` [Example 24, 3-Phenylethynyl-4H-5-thia-2,6,9b-triaza-cyclopenta[a]naphthalene] came in with an IC50 in data set [1] of 150 nM.

On to `Cn1ccnc1C#Cc1ccccc1F` [Example 18, 2-(2-Fluoro-phenylethynyl)-1-methyl-1H-imidazole], for which, in data set [1], the IC50 is 70 nM. This IC50 lies about 2.1-fold lower than the previous one.

Turning to `C(#Cc1c[nH]cn1)c1ccccc1` [Example 28, 4-Phenylethynyl-1H-imidazole], the IC50 in data set [1] is 3360 nM. Against the preceding compound, the IC50 is about 48-fold higher.

In data set [1], `COc1ccc2[nH]c(C#Cc3ccccc3)c(CCNC(C)=O)c2c1` [Example 23, N-[2-(5-Methoxy-2-phenylethynyl-1H-indol-3-yl)-ethyl]-acetamide] showed an IC50 of 580 nM.

In data set [1], `CCOC(=O)c1c(C)nc(C#Cc2ccc(-c3ccccc3)cc2)n1C` [Example 16, 2-Biphenyl-4-ylethynyl-3,5-dimethyl-3H-imidazole-4-carboxylic acid ethyl ester] showed an IC50 of 210 nM.

On to `O=[N+]([O-])c1cnc(C#Cc2ccccc2)n1CCO` [Example 5, 2-(5-Nitro-2-phenylethynyl-imidazol-1-yl)-ethanol], for which the IC50 in data set [1] turned out to be 2110 nM.

As usually defined, the IC50 is the concentration needed to halve the response being measured. As usually defined, the melting point is the temperature of the solid-liquid transition.
